{"source": "patent US20200179426A1", "about": "“METHODS OF USE FOR OENOTHEIN A AND B FROM EPILOBIUM SPECIES” (EPILOBIUM, INC., priority 2017, published 2020)", "key": {"[1]": {"system": "hen's-egg chorioallantoic membrane (CAM)", "assay": "hen's-egg chorioallantoic membrane (CAM) irritation model with 15% lactic acid as standard irritant", "conditions": "oenothein B extract at 1% (weight to volume) dilution; applied before the irritant (15% lactic acid), simulating prophylactic use", "method": "In the hen's-egg chorioallantoic membrane (CAM) model, in which the CAM is treated with 15% lactic acid as a standard irritant, the development of manifestations of membrane irritation were tracked and scored according to published methods for assessing irritancy. A sample of the oenothein B extract from Canadian Willow herb described in Example 1 was tested at a 1% (weight to volume) dilution for activity in the CAM model."}, "[2]": {"assay": "xanthine oxidase/acetaldehyde spectrophotometric free radical scavenging assay", "format": "biochemical", "method": "The scavenging of free super oxide radicals is quantitated spectrometrically and expressed in terms of percentage of radicals scavenged. Assays were performed with 1% (w/v) and 0.1% (w/v) dilutions of the dried extract, which yielded up to 100% scavenging activity and up to 99% scavenging activity respectively."}}, "data": [{"substance": "oenothein B", "values": [{"measurement": "decrease in irritation", "setting": "[1]", "result": "up to 70%"}, {"measurement": "scavenging activity (percentage of superoxide radicals scavenged)", "setting": "[2]; 0.1% (w/v) dilution of the dried extract", "result": "up to 99%"}, {"measurement": "scavenging activity (percentage of superoxide radicals scavenged)", "setting": "[2]; 1% (w/v) dilution of the dried extract", "result": "up to 100%"}]}]}
